In ChEMBL document CHEMBL6182864, “Design, synthesis and biological evaluation of 3-amino-6-(2-hydroxyphenyl)pyridazin-4-aryl derivatives as SMARCA2/4 degraders” (Eur J Med Chem, 2025) one finds Activity, IC50 and viability data, which are given here for 18 compounds.

The structures appear in SMILES notation. pIC50: −log10 of the molar value. Calls of active or inactive are those of the source. The rule behind the calls is not given here.

Test [1] has as its system MOLM-13. Put plainly: Induction of SMARCA2 degradation in human MOLM-13 cells at 10 uM measured after 72 hrs by Western blotting analysis. Format: cell-based. Background: Immunoblotting shows a protein as a band on a membrane.
Test [2] deals with MOLM-13. Put plainly: Induction of SMARCA4 degradation in human MOLM-13 cells at 10 uM measured after 72 hrs by Western blotting analysis. Format: cell-based.
Test [3] deals with MV4-11. Put plainly: cells. The following applies: Homo sapiens, MV4-11, 72 h.
Test [4] deals with MOLM-13. Put plainly: cells. The following applies: Homo sapiens, MOLM-13, 72 h.
Test [5] relates to MV4-11. Put plainly: Induction of apoptosis in human MV4-11 cells assessed as necrotic cells at 100 nM measured after 72 hrs by Annexin-V-FITC/propidium iodide staining based flow cytometry (reference value: 0.1%). Format: functional. A general note: A flow cytometer gives signals particle by particle.
In test [6] the test system is MV4-11. Put plainly: Induction of apoptosis in human MV4-11 cells assessed as early apoptotic cells at 300 nM measured after 72 hrs by Annexin-V-FITC/propidium iodide staining based flow cytometry (reference value: 9.32%). Format: functional.
Test [7] relates to MV4-11. Put plainly: Induction of apoptosis in human MV4-11 cells assessed as necrotic cells at 300 nM measured after 72 hrs by Annexin-V-FITC/propidium iodide staining based flow cytometry (reference value: 0.1%). Format: functional.
In test [8] the test system is MV4-11. In words: Induction of apoptosis in human MV4-11 cells assessed as late apoptotic cells at 300 nM measured after 72 hrs by Annexin-V-FITC/propidium iodide staining based flow cytometry (reference value: 1.09%). Format: functional.
Test [9] relates to MV4-11. In words: Induction of apoptosis in human MV4-11 cells assessed as early apoptotic cells at 1000 nM measured after 72 hrs by Annexin-V-FITC/propidium iodide staining based flow cytometry (reference value: 9.32%). Format: functional.
For test [10], the system named is MV4-11. In words: Induction of apoptosis in human MV4-11 cells assessed as late apoptotic cells at 100 nM measured after 72 hrs by Annexin-V-FITC/propidium iodide staining based flow cytometry (reference value: 1.09%). Format: functional.
For test [11], the system named is MOLM-13. In words: Induction of apoptosis in human MOLM-13 cells assessed as late apoptotic cells at 1000 nM measured after 72 hrs by Annexin-V-FITC/propidium iodide staining based flow cytometry (reference value: 3.87%). Format: functional.
Test [12] has as its system MV4-11. In words: Induction of apoptosis in human MV4-11 cells assessed as viable cells at 100 nM measured after 72 hrs by Annexin-V-FITC/propidium iodide staining based flow cytometry (reference value: 89.49%). Format: functional. To be noted: read-out: Activity.
Test [13] relates to MV4-11. In words: Induction of apoptosis in human MV4-11 cells assessed as early apoptotic cells at 100 nM measured after 72 hrs by Annexin-V-FITC/propidium iodide staining based flow cytometry (reference value: 9.32%). Format: functional.
Test [14] has as its system MOLM-13. Put plainly: Induction of apoptosis in human MOLM-13 cells assessed as viable cells at 300 nM measured after 72 hrs by Annexin-V-FITC/propidium iodide staining based flow cytometry (reference value: 90.28%). Format: functional. To be noted: read-out: Activity.
The test system of test [15] is MOLM-13. Put plainly: Induction of apoptosis in human MOLM-13 cells assessed as necrotic cells at 100 nM measured after 72 hrs by Annexin-V-FITC/propidium iodide staining based flow cytometry (reference value: 0.28%). Format: functional.
Test [16] has as its system MOLM-13. In words: Induction of apoptosis in human MOLM-13 cells assessed as necrotic cells at 300 nM measured after 72 hrs by Annexin-V-FITC/propidium iodide staining based flow cytometry (reference value: 0.28%). Format: functional.
Test [17] concerns MV4-11. Put plainly: Induction of apoptosis in human MV4-11 cells assessed as viable cells at 1000 nM measured after 72 hrs by Annexin-V-FITC/propidium iodide staining based flow cytometry (reference value: 89.49%). Format: functional. To be noted: read-out: Activity.
Test [18] deals with MOLM-13. In words: Induction of apoptosis in human MOLM-13 cells assessed as early apoptotic cells at 100 nM measured after 72 hrs by Annexin-V-FITC/propidium iodide staining based flow cytometry (reference value: 5.57%). Format: functional.
Test [19] relates to MOLM-13. Put plainly: Induction of apoptosis in human MOLM-13 cells assessed as late apoptotic cells at 100 nM measured after 72 hrs by Annexin-V-FITC/propidium iodide staining based flow cytometry (reference value: 3.87%). Format: functional.
Test [20] deals with MOLM-13. In words: Induction of apoptosis in human MOLM-13 cells assessed as necrotic cells at 1000 nM measured after 72 hrs by Annexin-V-FITC/propidium iodide staining based flow cytometry (reference value: 0.28%). Format: functional.
Test [21] deals with MOLM-13. Put plainly: Induction of apoptosis in human MOLM-13 cells assessed as viable cells at 1000 nM measured after 72 hrs by Annexin-V-FITC/propidium iodide staining based flow cytometry (reference value: 90.28%). Format: functional. The following applies: read-out: Activity.
In test [22] the test system is MOLM-13. Put plainly: Induction of apoptosis in human MOLM-13 cells assessed as viable cells at 100 nM measured after 72 hrs by Annexin-V-FITC/propidium iodide staining based flow cytometry (reference value: 90.28%). Format: functional. The following applies: read-out: Activity.
The test system of test [23] is MOLM-13. Put plainly: Induction of apoptosis in human MOLM-13 cells assessed as late apoptotic cells at 300 nM measured after 72 hrs by Annexin-V-FITC/propidium iodide staining based flow cytometry (reference value: 3.87%). Format: functional.
Test [24] has as its system MOLM-13. In words: Induction of apoptosis in human MOLM-13 cells assessed as early apoptotic cells at 300 nM measured after 72 hrs by Annexin-V-FITC/propidium iodide staining based flow cytometry (reference value: 5.57%). Format: functional.
In test [25] the test system is MV4-11. In words: Induction of apoptosis in human MV4-11 cells assessed as viable cells at 300 nM measured after 72 hrs by Annexin-V-FITC/propidium iodide staining based flow cytometry (reference value: 89.49%). Format: functional. To be noted: read-out: Activity.
Test [26] deals with MOLM-13. Put plainly: Induction of apoptosis in human MOLM-13 cells assessed as early apoptotic cells at 1000 nM measured after 72 hrs by Annexin-V-FITC/propidium iodide staining based flow cytometry (reference value: 5.57%). Format: functional.
Test [27] relates to MV4-11. Put plainly: Induction of apoptosis in human MV4-11 cells assessed as late apoptotic cells at 1000 nM measured after 72 hrs by Annexin-V-FITC/propidium iodide staining based flow cytometry (reference value: 1.09%). Format: functional.
Test [28] relates to MV4-11. In words: Induction of apoptosis in human MV4-11 cells assessed as necrotic cells at 1000 nM measured after 72 hrs by Annexin-V-FITC/propidium iodide staining based flow cytometry (reference value: 0.1%). Format: functional.

In the case of `CC(C)C[C@H](NC(=O)[C@H](Cc1ccccc1)NC(=O)c1cnccn1)B(O)O`, the outcome in the test on MOLM-13 [1] and in the test on MOLM-13 [2] was Active.
Regarding `Cc1ncsc1-c1ccc(CNC(=O)[C@@H]2C[C@@H](O)CN2C(=O)[C@@H](NC(=O)C2(c3ccc(-c4cc(-c5ccccc5O)nnc4N)cc3)CC2)C(C)(C)C)cc1`, the negative logarithm of the IC50 (pIC50) in the test on MV4-11 [3] was 7.52; in the test with MOLM-13 [4], 6.59.
The corresponding values for `Cc1ncsc1-c1ccc(CNC(=O)[C@@H]2C[C@@H](O)CN2C(=O)[C@@H](NC(=O)CCCc2ccc(-c3cc(-c4ccccc4O)nnc3N)cc2)C(C)(C)C)cc1` are 7.70 and 5.84.
For `Cc1ncsc1-c1ccc([C@H](C)NC(=O)[C@@H]2C[C@@H](O)CN2C(=O)[C@@H](NC(=O)CCc2ccc(-c3cc(-c4ccccc4O)nnc3N)cc2)C(C)(C)C)cc1`, the negative logarithm of the IC50 (pIC50) was 5.51 with MV4-11 [3] and 5.06 in the test with MOLM-13 [4].
The corresponding values for `Cc1ncsc1-c1ccc(CNC(=O)[C@@H]2C[C@@H](O)CN2C(=O)[C@@H](NC(=O)COc2ccc(-c3cc(-c4ccccc4O)nnc3N)cc2)C(C)(C)C)cc1` are 6.52 and 6.07.
The corresponding values for `Cc1ncsc1-c1ccc([C@H](C)NC(=O)[C@@H]2C[C@@H](O)CN2C(=O)[C@@H](NC(=O)Cc2ccc(-c3cc(-c4ccccc4O)nnc3N)cc2)C(C)(C)C)cc1` are 6.62 and 5.42.
The corresponding values for `Cc1ncsc1-c1ccc(CNC(=O)[C@@H]2C[C@@H](O)CN2C(=O)[C@@H](NC(=O)CSc2ccc(-c3cc(-c4ccccc4O)nnc3N)cc2)C(C)(C)C)cc1` are 5.24 and 5.11.
Take `Cc1ncsc1-c1ccc([C@H](C)NC(=O)[C@@H]2C[C@@H](O)CN2C(=O)[C@@H](NC(=O)CCCc2ccc(-c3cc(-c4ccccc4O)nnc3N)cc2)C(C)(C)C)cc1`: the pIC50 in the test with MV4-11 [3] was 6.47; with MOLM-13 [4], 6.92.
The corresponding values for `Cc1ncsc1-c1ccc([C@H](C)NC(=O)[C@@H]2C[C@@H](O)CN2C(=O)[C@@H](NC(=O)c2ccc(-c3cc(-c4ccccc4O)nnc3N)cc2)C(C)(C)C)cc1` are below 5.00 and below 5.00.
For the compound `Cc1ncsc1-c1ccc([C@H](C)NC(=O)[C@@H]2C[C@@H](O)CN2C(=O)[C@@H](NC(=O)CSc2ccc(-c3cc(-c4ccccc4O)nnc3N)cc2)C(C)(C)C)cc1`, the negative-log IC50 (pIC50) in the test on MV4-11 [3] is 5.24; in the test with MOLM-13 [4] it was 5.29.
Turning to `NS(=O)(=O)OC[C@@H]1C[C@@H](n2ccc3c(N[C@H]4CCc5ccccc54)ncnc32)C[C@@H]1O`, the result in the test on MOLM-13 [1] and in the test on MOLM-13 [2] was Active.
For the compound `Cc1ncsc1-c1ccc(CNC(=O)[C@@H]2C[C@@H](O)CN2C(=O)[C@@H](NCc2ccc(-c3cc(-c4ccccc4O)nnc3N)cc2)C(C)(C)C)cc1`, the negative logarithm of the IC50 (pIC50) with MV4-11 [3] was 5.32; with MOLM-13 [4] it was 5.33.
The corresponding values for `Cc1ncsc1-c1ccc(CNC(=O)[C@@H]2C[C@@H](O)CN2C(=O)[C@@H](NC(=O)CCc2ccc(-c3cc(-c4ccccc4O)nnc3N)cc2)C(C)(C)C)cc1` are 5.67 and 5.41.
The corresponding values for `Cc1ncsc1-c1ccc([C@H](C)NC(=O)[C@@H]2C[C@@H](O)CN2C(=O)[C@@H](NC(=O)COc2ccc(-c3cc(-c4ccccc4O)nnc3N)cc2)C(C)(C)C)cc1` are 6.92 and 6.34.
The corresponding values for `Cc1ncsc1-c1ccc([C@H](C)NC(=O)[C@@H]2C[C@@H](O)CN2C(=O)[C@@H](NCc2ccc(-c3cc(-c4ccccc4O)nnc3N)cc2)C(C)(C)C)cc1` are 5.41 and 5.16.
On to `Cc1ncsc1-c1ccc(CNC(=O)[C@@H]2C[C@@H](O)CN2C(=O)[C@@H](NC(=O)Cc2ccc(-c3cc(-c4ccccc4O)nnc3N)cc2)C(C)(C)C)cc1`, for which the pIC50 in the test with MV4-11 [3] is 6.15; in the test on MOLM-13 [4], 5.56.
The corresponding values for `Cc1ncsc1-c1ccc(CNC(=O)[C@@H]2C[C@@H](O)CN2C(=O)[C@@H](NC(=O)c2ccc(-c3cc(-c4ccccc4O)nnc3N)cc2)C(C)(C)C)cc1` are 5.29 and 5.02.
On to `Cc1ncsc1-c1ccc([C@H](C)NC(=O)[C@@H]2C[C@@H](O)CN2C(=O)[C@@H](NC(=O)CN2CCN(c3cc(-c4ccccc4O)nnc3N)CC2)C(C)(C)C)cc1`, for which the Activity is reported as 1.43% with MV4-11 [5]; 52.83% in the test on MV4-11 [6]; 1.63% with MV4-11 [7]; 26.43% with MV4-11 [8]; 56.45% in the test with MV4-11 [9]; 22.53% in the test with MV4-11 [10]. Also, the Activity in the test with MOLM-13 [11] came out at 27.77%; in the test with MV4-11 [13] it was 52.03%; in the test on MOLM-13 [15], 0.25%; in the test with MOLM-13 [16], 0.31%; in the test with MOLM-13 [18], 39.38%; in the test with MOLM-13 [19], 6.71%. Moreover, the Activity with MOLM-13 [20] is on record as 0.28%; with MOLM-13 [23] it was 15.85%; in the test with MOLM-13 [24], 62.09%; in the test with MOLM-13 [26], 58.07%; in the test on MV4-11 [27], 24.02%; in the test on MV4-11 [28], 1.01%. The figures for the viability at 0.1 µM in the test on MV4-11 [12] and with MOLM-13 [22] were 24% and 53.7%, respectively. The viability at 0.3 µM with MOLM-13 [14] is 21.8%; in the test with MV4-11 [25] it was 19.1%. The values for the viability at 1 µM with MV4-11 [17] and in the test on MOLM-13 [21] were 18.5% and 13.9%, respectively.

Usually pIC50 stands for the IC50 on a negative log10 scale, so that one unit is a factor of ten. A higher pIC50 goes with a small IC50.
